One assay relates to E. faecalis. In words: Biological activity against bacterial strains: E. faecalis. The format is cell-based, Enterococcus faecalis. The conditions noted are these: strain ATCC51575.
Another assay concerns S. aureus. In words: Biological activity against bacterial strains: S. aureus. It counts as cell-based, Staphylococcus aureus. On the set-up: unit not given here. The conditions noted are these: for Biological Activity, S. aureus ATCC6538p: strain ATCC6538p; for Biological Activity, S. aureus ATCC14154*: strain ATCC14154, macrolide resistant strain; for Biological Activity, S. aureus ATCC29213: strain ATCC29213; for Biological Activity, S. aureus ATCC33591*: strain ATCC33591, macrolide resistant strain; for Biological Activity, S. aureus ATCCBAA-39*: strain ATCCBAA-39, macrolide resistant strain; for Biological Activity, S. aureus ATCCBAA-44*: strain ATCCBAA-44, macrolide resistant strain.

In the next assay the test system is S. epidermidis. In words: Biological activity against bacterial strains: S. epidermidis. It counts as cell-based, Staphylococcus epidermidis. The conditions noted are these: strain ATCC12228.
A further assay has as its system S. pneumoniae. In words: Biological activity against bacterial strains: S. pneumoniae. The format is cell-based, Streptococcus pneumoniae. Also noted: Biological Activity, S. pneumoniae ATCC6301 / Biological Activity, S. pneumoniae ATCC700671 / Biological Activity, S. pneumoniae ATCC700676* / Biological Activity, S. pneumoniae ATCC700677* / Biological Activity, S. pneumoniae ATCC700905* / Biological Activity, S. pneumoniae ATCC700906* / Biological Activity, S. pneumoniae ATCC49619: unit not given here. Particulars: for Biological Activity, S. pneumoniae ATCC6301: strain ATCC6301; for Biological Activity, S. pneumoniae ATCC49619: strain ATCC49619; for Biological Activity, S. pneumoniae ATCC700671: strain ATCC700671; for Biological Activity, S. pneumoniae ATCC700676*: strain ATCC700676, macrolide resistant strain; for Biological Activity, S. pneumoniae ATCC700677*: strain ATCC700677, macrolide resistant strain; for Biological Activity, S. pneumoniae ATCC700905*: strain ATCC700905, macrolide resistant strain; for Biological Activity, S. pneumoniae ATCC700906*: strain ATCC700906, macrolide resistant strain.

As to `CCC1OC(=O)CC(O)C(C)C(OC2OC(C)C(O)C(N(C)C)C2O)C(CC=O)CC(C)C(=NOCCCCOc2ccc3ncccc3c2)C=CC(C)=CC1CO` (stereo not drawn) [Compound B], the “Biological Activity, E. faecalis ATCC51575” value with E. faecalis is recorded as more than 12.5. In the assay on S. aureus, the “Biological Activity, S. aureus ATCC6538p” value amounted to 0.20; the “Biological Activity, S. aureus ATCC14154*” value came out at 0.78; the “Biological Activity, S. aureus ATCC29213” value turned out to be 0.78; the “Biological Activity, S. aureus ATCC33591*” value is recorded as more than 12.5. For the same molecule, in the assay with S. aureus, the “Biological Activity, S. aureus ATCCBAA-39*” value is more than 12.5 and the “Biological Activity, S. aureus ATCCBAA-44*” value is more than 12.5. In addition, in the assay on S. epidermidis, the “Biological Activity, S. epidermidis ATCC12228” value stood at 0.20. In the assay with S. pneumoniae, the “Biological Activity, S. pneumoniae ATCC6301” value is recorded as 0.025; the “Biological Activity, S. pneumoniae ATCC49619” value is recorded as 0.01; the “Biological Activity, S. pneumoniae ATCC700671” value amounted to 0.025; the “Biological Activity, S. pneumoniae ATCC700676*” value was 0.025. For the same molecule, in the assay with S. pneumoniae, the “Biological Activity, S. pneumoniae ATCC700677*” value was determined as 0.39; the “Biological Activity, S. pneumoniae ATCC700905*” value is 0.025; the “Biological Activity, S. pneumoniae ATCC700906*” value is more than 12.5.
In the case of `CCC1OC(=O)CC(O)C(C)C(OC2OC(C)C(O)C(N(C)C)C2O)C(CC=O)CC(C)C(=NOCC(=O)N2CCN(c3ccccc3)CC2)C=CC(C)=CC1CO` (stereo not drawn) [Compound C], the “Biological Activity, E. faecalis ATCC51575” value with E. faecalis is more than 12.5. In the assay on S. aureus, the “Biological Activity, S. aureus ATCC6538p” value is on record as 0.78; the “Biological Activity, S. aureus ATCC14154*” value worked out at 1.56; the “Biological Activity, S. aureus ATCC29213” value is on record as 1.56; the “Biological Activity, S. aureus ATCC33591*” value was more than 12.5. In the assay with S. aureus, the “Biological Activity, S. aureus ATCCBAA-39*” value is more than 12.5 and the “Biological Activity, S. aureus ATCCBAA-44*” value is on record as more than 12.5. Besides, the “Biological Activity, S. epidermidis ATCC12228” value in the assay with S. epidermidis is 0.20. For the same molecule, in the assay on S. pneumoniae, the “Biological Activity, S. pneumoniae ATCC6301” value turned out to be 0.025; the “Biological Activity, S. pneumoniae ATCC49619” value turned out to be 0.01; the “Biological Activity, S. pneumoniae ATCC700671” value is 0.025; the “Biological Activity, S. pneumoniae ATCC700676*” value came out at 0.39. Besides, in the assay with S. pneumoniae, the “Biological Activity, S. pneumoniae ATCC700677*” value is 6.25; the “Biological Activity, S. pneumoniae ATCC700905*” value is listed as 0.20; the “Biological Activity, S. pneumoniae ATCC700906*” value is recorded as more than 12.5.
As to `CO[C@@H]1[C@@H](OC2OC(C)C(O)C(N(C)C)C2O)[C@@H](CC=O)C[C@@H](C)C(=N/OCCCOc2ccc3ncccc3c2)/C=C/C=C/C[C@@H](C)OC(=O)C[C@H]1O` (stereo partly drawn) [Compound HH], the “Biological Activity, E. faecalis ATCC51575” value with E. faecalis is recorded as more than 12.5. In the assay with S. aureus, the “Biological Activity, S. aureus ATCC6538p” value stood at 0.2; the “Biological Activity, S. aureus ATCC14154*” value came to 0.78; the “Biological Activity, S. aureus ATCC29213” value was found to be 3.12; the “Biological Activity, S. aureus ATCC33591*” value is recorded as more than 12.5. Besides, in the assay with S. aureus, the “Biological Activity, S. aureus ATCCBAA-39*” value is reported as more than 12.5 and the “Biological Activity, S. aureus ATCCBAA-44*” value is more than 12.5. In addition, the “Biological Activity, S. epidermidis ATCC12228” value in the assay with S. epidermidis was 0.78. For the same molecule, in the assay on S. pneumoniae, the “Biological Activity, S. pneumoniae ATCC6301” value is given as 0.025; the “Biological Activity, S. pneumoniae ATCC49619” value turned out to be 0.025; the “Biological Activity, S. pneumoniae ATCC700671” value came out at 0.025; the “Biological Activity, S. pneumoniae ATCC700676*” value is 0.025. In the assay with S. pneumoniae, the “Biological Activity, S. pneumoniae ATCC700677*” value came to 3.12; the “Biological Activity, S. pneumoniae ATCC700905*” value was 0.025; the “Biological Activity, S. pneumoniae ATCC700906*” value is more than 12.5.

For the origin of these results see patent publication US7247617B2, “Sixteen-member macrolide antiinfective agents” (Kosan Biosciences Incorporated, priority 2004, dated 2007).
